Assay results reported in patent US11597720B2, “Tetrahydronaphthalene and tetrahydroisoquinoline derivatives as estrogen receptor degraders” (Arvinas Operations, Inc., priority 2016, dated 2023).

Experiments:
[1] = target: T1, Estrogen receptor-alpha (ERα) (Homo sapiens, UniProt P03372); assay: ERα degradation in T47D cells, western blot; assay type: cell-based; parameters: except that T47D cells were utilized instead of the MCF7 cells; endogenous in cells; host or cells: T47D cells; conditions: 7 concentrations 100 nM to 0.1 nM, 10% FBS, 72 hours
T1 sequence (P03372 1-595): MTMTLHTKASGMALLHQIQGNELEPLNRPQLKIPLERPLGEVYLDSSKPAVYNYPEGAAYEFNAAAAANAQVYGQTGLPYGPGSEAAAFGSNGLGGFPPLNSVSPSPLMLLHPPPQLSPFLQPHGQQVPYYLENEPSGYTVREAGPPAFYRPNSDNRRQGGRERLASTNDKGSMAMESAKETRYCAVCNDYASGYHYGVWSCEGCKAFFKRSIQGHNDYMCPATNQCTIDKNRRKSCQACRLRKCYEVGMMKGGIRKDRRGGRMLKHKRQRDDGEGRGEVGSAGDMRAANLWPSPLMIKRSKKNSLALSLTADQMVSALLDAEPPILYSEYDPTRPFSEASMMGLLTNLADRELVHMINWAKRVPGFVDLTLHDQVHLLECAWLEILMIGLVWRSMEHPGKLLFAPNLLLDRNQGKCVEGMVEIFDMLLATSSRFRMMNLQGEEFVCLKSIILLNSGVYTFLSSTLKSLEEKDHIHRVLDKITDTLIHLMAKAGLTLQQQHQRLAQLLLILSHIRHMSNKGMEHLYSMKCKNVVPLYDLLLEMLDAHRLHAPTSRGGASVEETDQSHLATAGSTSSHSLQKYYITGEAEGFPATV
Description: Compounds prepared in this application were also analyzed for their ability to degrade ERα in MCF7 and T47D cells.
Estrogen receptor-alpha (ERα) degradation assay in T47D cells using western blot method. The same protocol that was described above with MCF7 cells was utilized, except that T47D cells were utilized instead of the MCF7 cells.

[2] = target: T1, Estrogen receptor-alpha (ERα); assay: ERα degradation in MCF-7 cells, western blot; assay type: cell-based; parameters: assessed for their activity in degrading ERα in MCF-7 cells via western blot; endogenous in cells; host or cells: MCF7 cells; conditions: 10% FBS; for Degradation of ERα in MCF7 cells (immunoblot, FIG. 2): 7 concentrations 100 nM to 0.1 nM, 48 hours
Description: FIG. 2 and FIG. 3 illustrate represent exemplary compounds from the western blot assay.
Estrogen receptor-alpha (ERα) degradation assay in MCF-7 cells using western blot method. The exemplary novel ERα degraders were assessed for their activity in degrading ERα in MCF-7 cells via western blot. The assay was carried out in the presence of 10% […] bovine serum (FBS) or high percentage of human or mouse serum.
MCF7 cells were grown in DMEM/F12 with 10% fetal bovine serum and seeded at 24,000 cells per well in 100 μl into 96-well clear tissue culture plates. The following day, the cells were treated with PROTACs in a 7-point concentration curve with 100 nM being the top concentration and serial dilutions to make the other concentrations (30 nM, 10 nM, 3 nM, 1 nM, and 0.3 nM). At all concentrations, 0.01% DMS is the final concentration in the well. […], washed with 50 μl of cold P1BS, The cells are lysed with 50 μl/well 4° (Cell Lysis Buffer (Catalog #9803; Cell Signaling Technology, Danvers, Mass.) (20 mM Tris-HCL (pH 7.5), 150 mM NaCl, 1 mM Na2EDTA, 1 mM EGTA, 1% Triton, 2.5 mM sodium pyrophosphate, 1 mM B-glycerophosphate, 1 mM sodium vanadate, 1 ug/ml leupeptin). Lysates were clarified at 16,000×g for 10 minutes, and 2 μg of protein was subjected to SDS-PAGE analysis and followed by immunoblotting according to standard protocols. The antibodies used were ERα (Cell Signaling Technologies Catalog #8644), and Tubulin (Sigma Catalog #T9026; St Louis, Mo.). Detection reagents were Clarity Western ECL substrate (Bio-Rad Catalog #170-5060; Hercules, Calif.).
Alternatively, MCF7 cells were grown in DMEM/F12 with 10% fetal bovine serum and seeded at 24,000 cells per well in 500 μl in 24-well clear tissue culture plates. The following day, the cells were treated with PROTACs in a 5-point concentration curve (100 nM, 33 nM, 11 nM, 3.7 nM, and 1.2 nM) in the presence of 0.01% DMSO, After 72 hours, the wells are aspirated and washed with 500 μl of PBS. The cells are lysed with 100 μl/well 4° C. […]

In the case of `Cc1ncsc1-c1ccc(CNC(=O)[C@@H]2C[C@@H](O)CN2C(=O)[C@@H](NC(=O)COCCN2CCN(CCOc3ccc([C@@H]4c5ccc(O)cc5CC[C@@H]4c4ccccc4)cc3)CC2)C(C)(C)C)cc1` [Example 1, (2S,4R)-4-hydroxy-1-[(2S)-2-(2-{2-[4-(2-{4-[(1R,2S)-6-hydroxy-2-phenyl-1,2,3,4-tetrahydronaphthalen-1-yl]phenoxy}ethyl)piperazin-1-yl]ethoxy}acetamido)-3,3-dimethylbutanoyl]-N-{[4-(4-methyl-1,3-thiazol-5-yl)phenyl]methyl}pyrrolidine-2-carboxamide], the “Degradation of ERα in T47D cells (immunoblot, FIG. 4)” value [1] is reported as “Degradation of ERα” and the “Degradation of ERα in MCF7 cells (immunoblot, FIG. 2)” value [2] is reported as “Degradation of ERα”.

In the case of `O=C1CCC(N2Cc3cc(N4CCN(CC5CCN(c6ccc([C@@H]7c8ccc(O)cc8CC[C@@H]7c7ccccc7)cc6)CC5)CC4)ccc3C2=O)C(=O)N1` (stereo partly drawn) [Example 341, 3-[5-[4-[[1-[4-[(1R, 2S)-6-hydroxy-2-phenyl-tetralin-1-yl]phenyl]-4-piperidyl]methyl]piperazin-1-yl]-1-oxo-isoindolin-2-yl]piperidine-2,6-dione], the “Degradation of ERα in MCF7 cells (immunoblot, FIG. 3)” value ([2]; 5 concentrations 100 nM to 1.2 nM, 72 hours) is reported as “Degradation of ERα”.

With `O=C1CCC(N2Cc3cc(N4CCN(CCCCCOc5ccc([C@@H]6c7ccc(O)cc7CC[C@@H]6c6ccccc6)cc5)CC4)ccc3C2=O)C(=O)N1` (stereo partly drawn) [Example 62, 3-{5-[4-(5-{4-[(1R,2S)-6-hydroxy-2-phenyl-1,2,3,4-tetrahydronaphthalen-1-yl]phenoxy}pentyl)piperazin-1-yl]-1-oxo-2,3-dihydro-1H-isoindol-2-yl}piperidine-2,6-dione] the “Degradation of ERα in T47D cells (immunoblot, FIG. 4)” value [1] was “Degradation of ERα” and the “Degradation of ERα in MCF7 cells (immunoblot, FIG. 2)” value [2] was “Degradation of ERα”.
